# Positions of bridges follow the written chain, without caps; N, C: chain ends. Non-standard residues stand in square brackets, D forms with d. Residues, ends and D or L forms follow the SMILES beside them. Hyp = O=C(O)[C@@H]1C[C@@H](O)CN1
# Biological target: hCav2.2 (Homo sapiens, UniProt Q00975)
# Experiment: cell-based
# Conditions: SEM
# Chain of hCav2.2 (Q00975 whole entry, looked up): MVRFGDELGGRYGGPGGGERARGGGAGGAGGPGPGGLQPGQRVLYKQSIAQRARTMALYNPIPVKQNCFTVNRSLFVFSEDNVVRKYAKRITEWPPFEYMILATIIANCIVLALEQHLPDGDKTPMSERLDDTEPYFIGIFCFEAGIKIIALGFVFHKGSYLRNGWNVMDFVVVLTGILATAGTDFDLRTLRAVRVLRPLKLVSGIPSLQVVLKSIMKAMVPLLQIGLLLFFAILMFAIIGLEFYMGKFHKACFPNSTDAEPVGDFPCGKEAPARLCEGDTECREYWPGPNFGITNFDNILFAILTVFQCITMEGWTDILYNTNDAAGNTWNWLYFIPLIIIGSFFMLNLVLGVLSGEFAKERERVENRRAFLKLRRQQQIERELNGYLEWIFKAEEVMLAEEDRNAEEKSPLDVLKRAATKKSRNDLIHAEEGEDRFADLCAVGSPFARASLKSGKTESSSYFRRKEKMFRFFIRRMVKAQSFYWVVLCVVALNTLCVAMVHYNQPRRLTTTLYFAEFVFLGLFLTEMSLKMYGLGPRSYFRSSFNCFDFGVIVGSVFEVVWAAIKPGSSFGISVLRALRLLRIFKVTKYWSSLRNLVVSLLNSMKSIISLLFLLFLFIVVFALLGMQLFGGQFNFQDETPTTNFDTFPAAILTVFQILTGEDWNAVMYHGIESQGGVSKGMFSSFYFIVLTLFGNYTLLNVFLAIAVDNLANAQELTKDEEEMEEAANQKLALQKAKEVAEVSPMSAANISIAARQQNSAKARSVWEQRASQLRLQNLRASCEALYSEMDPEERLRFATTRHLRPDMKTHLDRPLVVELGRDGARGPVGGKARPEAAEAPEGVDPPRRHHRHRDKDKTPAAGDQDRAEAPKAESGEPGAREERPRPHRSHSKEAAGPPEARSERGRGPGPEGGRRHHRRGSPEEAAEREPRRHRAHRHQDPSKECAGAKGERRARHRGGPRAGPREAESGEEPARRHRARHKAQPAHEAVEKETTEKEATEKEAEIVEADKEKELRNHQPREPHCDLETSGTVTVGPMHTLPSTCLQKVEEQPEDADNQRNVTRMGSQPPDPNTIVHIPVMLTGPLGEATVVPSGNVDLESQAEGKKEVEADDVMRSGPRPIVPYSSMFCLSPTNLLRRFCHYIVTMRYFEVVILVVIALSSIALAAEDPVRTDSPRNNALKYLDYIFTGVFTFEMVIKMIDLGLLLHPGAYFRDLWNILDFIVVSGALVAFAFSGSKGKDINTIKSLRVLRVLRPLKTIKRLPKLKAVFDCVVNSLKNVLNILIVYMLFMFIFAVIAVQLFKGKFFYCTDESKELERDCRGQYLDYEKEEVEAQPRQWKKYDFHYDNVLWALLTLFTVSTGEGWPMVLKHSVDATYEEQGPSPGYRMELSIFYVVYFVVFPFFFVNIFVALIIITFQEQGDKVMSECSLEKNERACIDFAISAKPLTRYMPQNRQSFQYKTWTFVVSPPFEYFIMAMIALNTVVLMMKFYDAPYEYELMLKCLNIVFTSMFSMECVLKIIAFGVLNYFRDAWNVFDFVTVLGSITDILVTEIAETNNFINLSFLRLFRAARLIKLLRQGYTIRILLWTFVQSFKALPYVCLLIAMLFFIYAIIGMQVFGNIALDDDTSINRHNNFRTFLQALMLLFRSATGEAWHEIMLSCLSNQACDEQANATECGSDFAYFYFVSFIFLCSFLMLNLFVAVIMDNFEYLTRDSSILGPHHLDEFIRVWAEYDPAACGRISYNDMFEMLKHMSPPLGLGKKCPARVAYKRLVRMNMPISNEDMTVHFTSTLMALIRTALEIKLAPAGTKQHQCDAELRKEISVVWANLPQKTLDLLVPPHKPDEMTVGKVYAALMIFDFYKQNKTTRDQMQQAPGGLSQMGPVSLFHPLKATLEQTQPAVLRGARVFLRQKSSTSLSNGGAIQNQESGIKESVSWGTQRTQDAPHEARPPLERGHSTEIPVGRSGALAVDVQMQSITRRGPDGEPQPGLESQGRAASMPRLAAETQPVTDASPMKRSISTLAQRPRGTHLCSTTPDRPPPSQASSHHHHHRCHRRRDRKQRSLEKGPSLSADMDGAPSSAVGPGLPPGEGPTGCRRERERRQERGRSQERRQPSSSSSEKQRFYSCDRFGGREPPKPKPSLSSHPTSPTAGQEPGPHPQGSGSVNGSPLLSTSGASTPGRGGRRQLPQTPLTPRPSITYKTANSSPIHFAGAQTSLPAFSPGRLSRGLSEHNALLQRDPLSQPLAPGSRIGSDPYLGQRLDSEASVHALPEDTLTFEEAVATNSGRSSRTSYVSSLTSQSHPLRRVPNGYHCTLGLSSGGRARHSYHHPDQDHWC
smiles,measurement,value
"CC[C@H](C)[C@@H]1NC(=O)[C@@H]2CSSC[C@@H]3NC(=O)[C@H](CCCCN)NC(=O)[C@H](CO)NC(=O)CNC(=O)[C@@H]4C[C@@H](O)CN4C(=O)[C@@H]4CCCN4C(=O)[C@H](CCCCN)NC(=O)[C@@H](N)CSSC[C@H](NC(=O)[C@H](CSSC[C@@H](C(=O)N[C@@H](CCCNC(=N)N)C(=O)N[C@@H](CCCCN)C(=O)N[C@@H](Cc4ccc(O)cc4)C(=O)N[C@@H](Cc4ccc(O)cc4)C(=O)O)NC(=O)[C@H](CCCNC(=N)N)NC(=O)[C@H](CCCCN)NC(=O)[C@H]([C@@H](C)O)NC(=O)[C@H](Cc4ccc(O)cc4)NC(=O)[C@H](CO)NC1=O)NC(=O)[C@H](CC(=O)O)NC(=O)[C@H](Cc1ccc(O)cc1)NC(=O)[C@H](CCSC)NC(=O)[C@H](CO)NC(=O)[C@@H]1C[C@@H](O)CN1C(=O)[C@H](CO)NC3=O)C(=O)N[C@@H]([C@@H](C)O)C(=O)N[C@@H]([C@@H](C)O)C(=O)N2 [MoVIB-[R13Y]] (H-CKP[Hyp]GSKCS[Hyp]SMYDCCTTCISYTKRCRKYY-OH; disulfide 1-16, 8-19, 15-26)",IC50,3.47 ± 0.55 µM
